Legend:
[1] = tested on: normal NK cells expanded with K562-aAPC; assay: percent inhibition of viability; higher = more inhibition; settings: 72 h, IL-2 2.5 ng/mL
Method: (§1)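 Drug sensitivity and resistance testing on K562-aAPC-expanded normal NK cells: 5 concentrations (10-fold steps over a 10,000-fold range), 72 h at 37 °C, viability by CellTiter-Glo normalised to DMSO and benzethonium chloride controls; DSS from the fitted curve.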

DERL-7 (IL-2 2.5 ng/mL) [2] = assay: drug sensitivity score (DSS) (DSS units); higher = more sensitive; extreme values may be limits of the assay; settings: 72 h
IMC-1 (IL-2 20 ng/mL) [3] = assay: as above; settings: 72 h
KAI3 (IL-2 2.5 ng/mL) [4] = assay: as above; settings: 72 h
SNK-6 (IL-2 2.5 ng/mL) [5] = assay: as above; settings: 72 h
[6] = tested on: normal primary NK cells, pool 2 (3 donors) (IL-2 2.5 ng/mL); assay: as above; settings: 72 h
NK-92 (IL-2 2.5 ng/mL) [7] = assay: as above; settings: 72 h
YT (IL-2 2.5 ng/mL) [8] = assay: as above; settings: 72 h
[9] = tested on: normal primary NK cells, pool 1 (3 donors) (IL-2 2.5 ng/mL); assay: as above; settings: 72 h
NKL (IL-2 2.5 ng/mL) [10] = assay: as above; settings: 72 h
NK-YS (IL-2 2.5 ng/mL) [11] = assay: as above; settings: 72 h
[12] = tested on: normal primary NK cells, pool 3 (3 donors) (IL-2 2.5 ng/mL); assay: as above; settings: 72 h
[13] = tested on: normal primary NK cells, pool 1 (3 donors), resting (IL-2 0 ng/mL); assay: as above; settings: 72 h
KHYG-1 (IL-2 2.5 ng/mL) [14] = assay: as above; settings: 72 h
DERL-7 (IL-2 2.5 ng/mL) [15] = assay: percent inhibition of viability; higher = more inhibition; settings: 72 h
IMC-1 (IL-2 20 ng/mL) [16] = assay: as above; settings: 72 h
KAI3 (IL-2 2.5 ng/mL) [17] = assay: as above; settings: 72 h
SNK-6 (IL-2 2.5 ng/mL) [18] = assay: as above; settings: 72 h
[19] = tested on: normal primary NK cells, pool 2 (3 donors) (IL-2 2.5 ng/mL); assay: as above; settings: 72 h
NK-92 (IL-2 2.5 ng/mL) [20] = assay: as above; settings: 72 h
YT (IL-2 2.5 ng/mL) [21] = assay: as above; settings: 72 h
[22] = tested on: normal primary NK cells, pool 1 (3 donors) (IL-2 2.5 ng/mL); assay: as above; settings: 72 h
NKL (IL-2 2.5 ng/mL) [23] = assay: as above; settings: 72 h
NK-YS (IL-2 2.5 ng/mL) [24] = assay: as above; settings: 72 h
[25] = tested on: normal primary NK cells, pool 3 (3 donors) (IL-2 2.5 ng/mL); assay: as above; settings: 72 h
[26] = tested on: normal primary NK cells, pool 1 (3 donors), resting (IL-2 0 ng/mL); assay: as above; settings: 72 h
KHYG-1 (IL-2 2.5 ng/mL) [27] = assay: as above; settings: 72 h
[28] = tested on: normal NK cells expanded with K562-aAPC; assay: drug sensitivity score (DSS) (DSS units); higher = more sensitive; extreme values may be limits of the assay; settings: 72 h; IL-2 2.5 ng/mL
Method: as §1

NC(=O)c1ccc(I)c([N+](=O)[O-])c1 [Iniparib] (max concentration tested 10000 nM)
percent inhibition of viability [%]
Settings	1 nM	10 nM	100 nM	1000 nM	10000 nM
DERL-7 (IL-2 2.5 ng/mL) [15]	-3.85	-2.44	3.9	-0.89	28.1
IMC-1 (IL-2 20 ng/mL) [16]	2.82	5.28	4.37	4.53	-3.7
KAI3 (IL-2 2.5 ng/mL) [17]	11.4	8.8	12.9	11.2	19
KHYG-1 (IL-2 2.5 ng/mL) [27]	-2.79	-0.73	-1.94	0.34	2.04
NK-92 (IL-2 2.5 ng/mL) [20]	8.25	4.1	12.8	3.36	7.28
NK-YS (IL-2 2.5 ng/mL) [24]	-0.99	0.64	-4.34	-1.33	-4.16
NKL (IL-2 2.5 ng/mL) [23]	-0.1	1.47	0.26	-4.81	-5.47
SNK-6 (IL-2 2.5 ng/mL) [18]	2.09	3.24	11.9	10.5	23.6
YT (IL-2 2.5 ng/mL) [21]	7.63	6.75	4.79	6.7	5.3
[1]	7.03	0.05	0.33	1.63	13.4
[19]	-8.36	-7.08	1.43	-0.1	30.1
[22]	8.54	2.74	4.22	12.3	53.8
[25]	-1.14	-4.93	1.99	-1.49	19.3
[26]	-2.43	-4.44	-6.4	24.9	78.9

Settings	drug sensitivity score
DERL-7 (IL-2 2.5 ng/mL) [2]	1.1
IMC-1 (IL-2 20 ng/mL) [3]	0
KAI3 (IL-2 2.5 ng/mL) [4]	0
KHYG-1 (IL-2 2.5 ng/mL) [14]	0
NK-92 (IL-2 2.5 ng/mL) [7]	0
NK-YS (IL-2 2.5 ng/mL) [11]	0
NKL (IL-2 2.5 ng/mL) [10]	0
SNK-6 (IL-2 2.5 ng/mL) [5]	2.01
YT (IL-2 2.5 ng/mL) [8]	0
[6]	1.31
[9]	4.84
[12]	0.46
[13]	7.97
[28]	0.24

CCc1c2c(nc3ccc(OC(=O)N4CCC(N5CCCCC5)CC4)cc13)-c1cc3c(c(=O)n1C2)COC(=O)[C@]3(O)CC [Irinotecan] (max concentration tested 10000 nM)
percent inhibition of viability [%]
Settings	1 nM	10 nM	100 nM	1000 nM	10000 nM
DERL-7 (IL-2 2.5 ng/mL) [15]	-4.74	4.74	6.64	65.6	96.7
IMC-1 (IL-2 20 ng/mL) [16]	-2.65	-6.08	0	95.8	99.6
KAI3 (IL-2 2.5 ng/mL) [17]	16.1	10.6	29.7	88.8	84.8
KHYG-1 (IL-2 2.5 ng/mL) [27]	0.37	-3.33	25.7	104	109
NK-92 (IL-2 2.5 ng/mL) [20]	0.95	-2.29	30	104	109
NK-YS (IL-2 2.5 ng/mL) [24]	-7.5	-7.35	7.27	94.2	98.5
NKL (IL-2 2.5 ng/mL) [23]	-2.62	5.5	62.6	105	108
SNK-6 (IL-2 2.5 ng/mL) [18]	18.2	-16.5	10.3	93.8	98.5
YT (IL-2 2.5 ng/mL) [21]	-5.37	-7.93	2.4	78.1	108
[1]	-0.14	-0.75	0.82	45.8	61
[19]	1.46	0.89	3.4	10	20.8
[22]	-8.27	6.89	-1.05	3.55	14.4
[25]	3.5	8.16	16.4	10.7	17.2
[26]	4.36	9.89	22.8	2.26	-9.62

Settings	drug sensitivity score
DERL-7 (IL-2 2.5 ng/mL) [2]	13.6
IMC-1 (IL-2 20 ng/mL) [3]	17.4
KAI3 (IL-2 2.5 ng/mL) [4]	19.5
KHYG-1 (IL-2 2.5 ng/mL) [14]	21.9
NK-92 (IL-2 2.5 ng/mL) [7]	22.4
NK-YS (IL-2 2.5 ng/mL) [11]	18.3
NKL (IL-2 2.5 ng/mL) [10]	25.6
SNK-6 (IL-2 2.5 ng/mL) [5]	18.7
YT (IL-2 2.5 ng/mL) [8]	14.6
[6]	1.23
[9]	0.5
[12]	2.6
[13]	0
[28]	8.77
